Assay results as given in patent publication US9884874B2, “Bromodomain-inhibiting compounds and pharmaceutical composition comprising same for preventing or treating a cancer” (KAINOS MEDICINE, INC., priority 2014, dated 2018).

How the values were obtained:
[1] = Human liver microsomal stability/clearance; assay type: in vitro ADME
Protocol: (§1) Human and mouse liver microsomal clearance assays were carried out in CROWN Biosciences (Taicang, China). The human liver microsomes (Cat No. X008067, Lot No. KQB) and mouse liver microsomes (Cat No. M1000, Lot No. 1210302) were purchased from Celsis and Xenotech, respectively.
(§2) 5 μL of test compound stock solution was diluted with 495 μL of 1:1 Methanol/Water (final concentration: 100 μM, 50% MeOH) and combined with 534 μL of the respective liver microsome solution (final concentration: 1.111 μM, 0.555% MeOH). The final concentration of the liver microsome solution was 0.7 mg protein/mL.
(§3) Incubations of the liver microsome solutions were performed in a 96 well plate at 37° C. 90 μL of the liver microsome solutions were added to Blank, and 90 μL of working solution of the test compound was added to all plates except the Blank.
(§4) All plates thus obtained were warmed in water bath at 37° C. for 10 min, and 10 μL of NADPH co-factor solution comprising 42 mg of β-nicotinamide adenine dinucleotide phosphate (Sigma Cat. No. N0505 Lot 020M7009V), 84 mg of isocitric acid (Sigma Cat. No. 11252 Lot 119K1099) and 0.478 mL of isocitric dehydrogenase (Sigma Cat. No. 12002 Lot 086K7055, 15 units/mg protein, warmed in water bath at 37° C. for 5 min was added to the plates. The resulting plates were incubated at 37° C. in the following order: T60 (The test compounds were incubated with the liver microsomal solution and NADPH for 60 min at 37° C.), T30 (such as for 30 min.), and T10 (such as for 10 min.). 300 μL of a cold (4° C.) stop solution (acetonitrile (ACN) including 500 nM of tolbutamide as internal standard) and 10 μL of NADPH co-factor solution to starting plate (T0: 100% of the parent compound without any reaction) were added to the plates. The reaction was stopped by adding 300 μL of the cold (4° C.) stop solution to the other plates in the following order: T10 first, then T30 and T60.
(§5) The samples were centrifuged at 4,000 rpm for 20 min and transferred to Bioanalytical Services for liquid chromatography-mass spectrometry (LC-MS)/MS (Waters UPLC/API 4000, 10 μL injection) analysis.

[2] = Mouse liver microsomal stability/clearance; assay type: in vitro ADME
Protocol: as §1, §2, §3, §4, §5

[3] = target: human BRD4 bromodomain 1 (Homo sapiens (Human), UniProt O60885); assay: Bromodomain binding assay (BRD4 Alpha-screen); settings: acetylated histone H4 peptide
Protocol: Bromodomain binding assays were carried out in Reaction Biology (PA, USA) to test the degrees of the inventive compounds in inhibiting the human BRD4 bromodomain 1 by Alpha-screen assay method.
Recombinant human BRD4 bromodomain 1 expressed in E. coli with N-terminal His-tag was used as the enzyme target.
A synthetic peptide ([…]-GSGSK-biotin) containing 1 to 21th amino acids of histone H4 acetylated at lysine 5, 8, 12 and 16 and conjugated to biotin was purchased from Millipore.
BRD4-1 (44 to 170th amino acids; Genbank Accession # NM_058243) was expressed in E. coli with N-terminal His-tag (see, Ni-NTA spin Kit Handbook (Qiagen), second edition, January, 2008). Nickel-Chelate ALPHA acceptor beads (Perkin Elmer) were used to specifically bind BRD4-1, and ALPHA streptavidin donor beads (Perkin Elmer) were used because they specifically recognized the biotinylated H4 peptide.
BRD binding assays were performed in a mixture comprising 50 mM Hepes (pH7.5), 100 mM NaCl, 0.05% CHAPS, 0.1% BSA, and 1% DMSO. After an assay reaction time of 60 min at 25° C., binding was measured with streptavidin donor beads and nickel-chelate acceptor beads. ALPHA signal was detected on Enspire (Ex/Em=680/520-620 nm). IC50 values were calculated from the fit of the dose-response curves. All IC50 values represent geometric mean values of a minimum of four determinations. These assays generally produced results within 3-fold of the reported mean.

[4] = test system: LnCAP (human prostatic adenocarcinoma cell line); assay: Anti-proliferative activity test (CellTiter-Glo), LnCAP; assay type: cell-based; settings: first value of LnCAP/MV4-11 cell, read-out: Cell proliferation IC50 (LnCAP)
Protocol: (§6) IC50 (uM) of the compounds obtained in Examples 1 to 18 against hematological cancer cells and solid tumors was measured for identifying anti-proliferative activities.
(§7) A human prostatic adenocarcinoma cell line, LnCAP (ATCC®, CRL-1740) and human leukemia cell line MV4-11 (ATCC®, CRL-9591) were used to test the degrees of the compounds 1 to 18 in inhibiting the cancer cell growth. The testing cell concentration was adjusted to 6.7×10^3 cells/ml with a culture medium supplemented with 10% FBS, in the temperature of 37° C., 5% CO2 and 95% humidity. Culture media and FBS were purchased from GIBCO. 90 μL of cell suspensions thus obtained was added to two 96-well plates with the final cell density of 600 cells/well, followed by addition of 10 μL of culture medium to each well of plate. The plates were incubated overnight in a humidified incubator at 37° C. with 5% CO2.
(§8) Compounds 1 to 18 were each dissolved with dimethylsulfoxide (DMSO) or phosphate buffer solution (PBS) as a stock solution, and 200× solutions of test compound (2 mM) using DMSO were prepared. Then, the DMSO solution thus obtained was diluted 20-fold with culture medium or PBS to obtain 10× working solution. 10 μL of 10× working solution (drug solution) was dispensed to each well (triplicate for each concentration). The final concentration of DMSO in culture medium was 0.5% [v/v].
(§9) Cell viability was determined using CellTiter-Glo® (CTG) assay. 100 μL of CellTiter-Glo® was added to the equal volume of the cultured cells to read luminescence in EnVision Multi Label Reader.

[5] = test system: MV4-11 (human leukemia cell line); assay: Anti-proliferative activity test (CellTiter-Glo), MV4-11; assay type: cell-based; settings: second value of LnCAP/MV4-11 cell, read-out: Cell proliferation IC50 (MV4-11)
Protocol: as §6, §7, §8, §9

[6] = human liver microsomes, first value of Human/Mouse cell, read-out: Liver microsomal clearance (Human)
[7] = mouse liver microsomes, second value of Human/Mouse cell, read-out: Liver microsomal clearance (Mouse)

Molecule `CCCS(=O)(=O)OC[C@@H]1N=C(c2ccc(Cl)cc2)c2cc(OC)ccc2-n2c(C)nnc21` [Compound 3, (R)-(6-(4-chlorophenyl)-8-methoxy-1-methyl-4H-benzo[f][1,2,4]triazolo[4,3-a][1,4]diazepin-4-yl)methyl propane-1-sulfonate] has a microsomal CLint at 1 µM [1, 6] of 71.3 µL/min/mg, a microsomal CLint at 1 µM [2, 7] of 39.7 µL/min/mg and an IC50 [3] of 390 nM. For the same molecule, the IC50 [4] was 830 nM and the IC50 [5] was 1810 nM.

`COc1ccc2c(c1)C(c1ccc(Cl)cc1)=N[C@@H](COS(=O)(=O)C1CC1)c1nnc(C)n1-2` [Compound 4, (R)-(6-(4-chlorophenyl)-8-methoxy-1-methyl-4H-benzo[f][1,2,4]triazolo[4,3-a][1,4]diazepin-4-yl)methyl cyclopropanesulfonate] gave a microsomal CLint at 1 µM [1, 6] of 6.3 µL/min/mg, a microsomal CLint at 1 µM [2, 7] of 8.9 µL/min/mg and an IC50 [3] of 420 nM. The IC50 [4] was 130 nM and the IC50 [5] was 690 nM.

With `COc1ccc2c(c1)C(c1ccc(Cl)cc1)=N[C@@H](COS(=O)(=O)c1ccccc1)c1nnc(C)n1-2` [Compound 5, (R)-(6-(4-chlorophenyl)-8-methoxy-1-methyl-4H-benzo[f][1,2,4]triazolo[4,3-a][1,4]diazepin-4-yl)methyl benzenesulfonate] the IC50 [3] was 900 nM.

With `Cc1nnc2n1-c1ccccc1C(c1ccc(Cl)cc1)=N[C@H]2COS(C)(=O)=O` [Compound 6, (R)-(6-(4-chlorophenyl)-1-methyl-4H-benzo[f][1,2,4]triazolo[4,3-a][1,4]diazepin-4-yl)methyl methanesulfonate] the IC50 [3] was 1410 nM.

In the case of `COc1ccc2c(c1)C(c1ccc(Cl)cc1)=N[C@@H](COS(=O)(=O)N(C)C)c1nnc(C)n1-2` [Compound 9, (R)-(6-(4-chlorophenyl)-8-methoxy-1-methyl-4H-benzo[f][1,2,4]triazolo[4,3-a][1,4]diazepin-4-yl)methyl dimethylsulfamate], the microsomal CLint at 1 µM [1, 6] is reported as 126 µL/min/mg, the microsomal CLint at 1 µM [2, 7] is reported as 86 µL/min/mg and the IC50 [3] is reported as 280 nM. The IC50 [4] was 1900 nM and the IC50 [5] was 1490 nM.

Work on `CNS(=O)(=O)OC[C@@H]1N=C(c2ccc(Cl)cc2)c2cc(OC)ccc2-n2c(C)nnc21` [Compound 10, (R)-(6-(4-chlorophenyl)-8-methoxy-1-methyl-4H-benzo[f][1,2,4]triazolo[4,3-a][1,4]diazepin-4-yl)methyl methylsulfamate] yielded a microsomal CLint at 1 µM [1, 6] of 29 µL/min/mg, a microsomal CLint at 1 µM [2, 7] of 21 µL/min/mg and an IC50 [3] of 400 nM. It also gave an IC50 [4] of 570 nM and an IC50 [5] of 350 nM.

`Cc1nnc2n1-c1ccc(-c3cnn(CC(N)=O)c3)cc1C(c1ccc(Cl)cc1)=N[C@H]2COS(C)(=O)=O` [Compound 12, (R)-(8-(1-(2-amino-2-oxoethyl)-1H-pyrazol-4-yl)-6-(4-chlorophenyl)-1-methyl-4H-benzo[f][1,2,4]triazolo[4,3-a][1,4]diazepin-4-yl)methyl methanesulfonate] gave a microsomal CLint at 1 µM [1, 6] of 5.6 µL/min/mg, a microsomal CLint at 1 µM [2, 7] of 6.9 µL/min/mg and an IC50 [3] of 110 nM. It also gave an IC50 [4] of 44000 nM and an IC50 [5] of 1070 nM.

Molecule `Cc1nnc2n1-c1ccc(-c3cnn(CC(=O)N(C)C)c3)cc1C(c1ccc(Cl)cc1)=N[C@H]2COS(C)(=O)=O` [Compound 13, (R)-(6-(4-chlorophenyl)-8-(1-(2-(dimethylamino)-2-oxoethyl)-1H-pyrazol-4-yl)-1-methyl-4H-benzo[f][1,2,4]triazolo[4,3-a][1,4]diazepin-4-yl)methyl methanesulfonate] has a microsomal CLint at 1 µM [1, 6] of 12.3 µL/min/mg, a microsomal CLint at 1 µM [2, 7] of 7.4 µL/min/mg and an IC50 [3] of 110 nM. For the same molecule, the IC50 [4] was 430 nM and the IC50 [5] was 290 nM.

Molecule `Cc1nnc2n1-c1ccc(C(=O)NCCO)cc1C(c1ccc(Cl)cc1)=N[C@H]2COS(C)(=O)=O` [Compound 14, (R)-(6-(4-chlorophenyl)-8-((2-hydroxyethyl)carbamoyl)-1-methyl-4H-benzo[f][1,2,4]triazolo[4,3-a][1,4]diazepin-4-yl)methyl methanesulfonate] has a microsomal CLint at 1 µM [1, 6] of 8.3 µL/min/mg, a microsomal CLint at 1 µM [2, 7] of 6.3 µL/min/mg and an IC50 [3] of 380 nM.

Molecule `Cc1sc2c(c1C)C(c1ccc(Cl)cc1)=N[C@@H](COS(N)(=O)=O)c1nnc(C)n1-2` [Compound 16, (R)-(4-(4-chlorophenyl)-2,3,9-trimethyl-6H-thieno[3,2-f][1,2,4]triazolo[4,3-a][1,4]diazepin-6-yl)methyl sulfamate] has a microsomal CLint at 1 µM ([1]; human, microsomes) of 10 µL/min/mg, a microsomal CLint at 1 µM ([2]; mouse, microsomes) of 9 µL/min/mg and an IC50 [3] of 250 nM.

`Cc1sc2c(c1C)C(c1ccc(Cl)cc1)=N[C@@H](COS(=O)(=O)N(C)C)c1nnc(C)n1-2` [Compound 17, (R)-(4-(4-chlorophenyl)-2,3,9-trimethyl-6H-thieno[3,2-f][1,2,4]triazolo[4,3-a][1,4]diazepin-6-yl)methyl dimethylsulfamate] showed a microsomal CLint at 1 µM ([1]; human, microsomes) of 171 µL/min/mg, a microsomal CLint at 1 µM ([2]; mouse, microsomes) of 138 µL/min/mg and an IC50 [3] of 900 nM.

For `CNS(=O)(=O)OC[C@@H]1N=C(c2ccc(Cl)cc2)c2c(sc(C)c2C)-n2c(C)nnc21` [Compound 18, (R)-(4-(4-chlorophenyl)-2,3,9-trimethyl-6H-thieno[3,2-f][1,2,4]triazolo[4,3-a][1,4]diazepin-6-yl)methyl methylsulfamate], the microsomal CLint at 1 µM ([1]; human, microsomes) was 51 µL/min/mg, the microsomal CLint at 1 µM ([2]; mouse, microsomes) was 49 µL/min/mg and the IC50 [3] was 160 nM.
